Data set [1] is described as follows: Solubility of indicator in polymonoguanadine fixer. The note with it: for Solubility @ 0.01 %: 0.01% in 4 wt % polymonoguanadine fixer; for Solubility @ 0.1%: 0.1% in 4 wt % polymonoguanadine fixer.
Source text: Fixer solutions were made by mixing a water based fixer containing a polymonoguanadine cationic polymer with an IR or UV absorber indicator.
2) The solubility is based on the solubility of the compound in a 4 wt % polymonoguanadine fixer.
The nature of data set [2]: Color of the fixer solution in the presence of the compound. The class given is physicochemical. The source says: 3) “Color” refers to the color of the fixer solution in the presence of the compound.

The values that follow come from patent publication US6830310B2, “Detectable markers in cationic polymeric fixers” (Hewlett-Packard Development Company, L.P., priority 2002, dated 2004).

On to `C(=Cc1ccccc1)c1ccccc1` [Stilbene], for which the “Solubility in the fixer vehicle” value in data set [1] (fixer vehicle that is mostly water) is given as “not soluble”.

As to `CCN(CC)c1ccc2c(C)cc(=O)oc2c1` [7-Diethylamino-4-methyl coumarin, 7-diethylamino-4-methyl coumarin], in data set [1], the “Solubility @ 0.01 %” value was “Yes” and the “Solubility @ 0.1%” value was “Yes”.

As for `CN1/C(=C/C=C/C=C/C=C/C2=[N+](C)c3ccccc3C2(C)C)C(C)(C)c2ccccc21.[I-]` [tricarbocyanine, 1,1′,3,3,3′,3′-Hexamethylindotricarbocyanine iodide], the “Solubility in polymonoguanadine thermal inkjet fixer” value in data set [1] (750 ppm) is listed as “not soluble”. Moreover, in data set [1] (in water / fixer), the “Solubility (general statement)” value is given as “only limited solubility”.

As for `CCN=C1C=CC(=C(c2ccc(N(CC)CC)cc2)c2ccc(N(CC)CC)cc2)c2ccccc21.Cl` [Victoria Blue BO], in data set [2], the Color result is “Blue”. Besides, the “Solubility @ 0.01 %” value in data set [1] is given as “Yes”.

Take `CC1(C)C(/C=C/C=C/C=C/C=C2\N(CCCCS(=O)(=O)O)c3ccc4ccccc4c3C2(C)C)=[N+](CCCCS(=O)(=O)[O-])c2ccc3ccccc3c21` [Indocyanine Green]: the Color entry in data set [2] was “Green”. In data set [1], the “Solubility @ 0.01 %” value is reported as “No” and the “Solubility @ 0.1%” value is “No”.

For `Nc1ccc(C(=O)O)cc1` [4-Aminobenzoic acid (PABA), 4-Aminobenzoic acid], the Color entry in data set [2] is recorded as “Clear”. In data set [1], the “Solubility @ 0.01 %” value was “Yes” and the “Solubility @ 0.1%” value is listed as “Yes”.

`CN(C)c1ccc(C=Cc2ccccn2)cc1` [2-[4-(Dimethylamino)styryl]pyridine]: the Color entry in data set [2] is listed as “Orange”. Moreover, in data set [1], the “Solubility @ 0.1%” value is “No”.

In the case of `Cc1cc2nc3[nH]c(=O)[nH]c(=O)c3nc2cc1C` [Lumichrome], the Color entry in data set [2] is reported as “Clear”. Further, in data set [1], the “Solubility @ 0.01 %” value is listed as “No” and the “Solubility @ 0.1%” value is on record as “No”.

`CCN(CC)CCc1c(C)c2ccc(O)cc2oc1=O.Cl` [3-[2-(diethylamino)ethyl]-7-hydroxy-4-methylcoumarin hydrochloride]: in data set [1], the “Solubility @ 0.01 %” value is “Yes”.

Consider `O=S(=O)([O-])c1cc(Nc2nc(Nc3ccccc3)nc(N(CCO)CCO)n2)ccc1/C=C/c1ccc(Nc2nc(Nc3ccccc3)nc(N(CCO)CCO)n2)cc1S(=O)(=O)[O-].[Na+].[Na+]` [FluorescentBrightner28], for which, in data set [2], the Color result was “Clear”.

As to `Cc1ccc2c(c1)sc(-c1ccc(N(C)C)cc1)[n+]2C.[Cl-]` [Thioflavin T], the Color entry in data set [2] is given as “Yellow”. For the same compound, in data set [1], the “Solubility @ 0.01 %” value is “Yes” and the “Solubility @ 0.1%” value is given as “No”.

As to `Cc1cc(=O)oc2cc(O)c(O)cc12` [4-Methylesculetin], in data set [2], the Color entry is reported as “Clear”. In data set [1], the “Solubility @ 0.01 %” value was “No” and the “Solubility @ 0.1%” value is reported as “No”.

Turning to Variamine Blue, in data set [2], the Color result was “Yellow”. Further, in data set [1], the “Solubility @ 0.01 %” value is “Yes” and the “Solubility @ 0.1%” value was “Yes”.

Turning to `Cc1ccc2nc(-c3ccc(N=NNc4ccc(-c5nc6ccc(C)c(S(=O)(=O)[O-])c6s5)cc4)cc3)sc2c1S(=O)(=O)[O-].[Na+].[Na+]` [Direct Yellow 9], the Color entry in data set [2] is on record as “Yellow”. In addition, the “Solubility @ 0.1%” value in data set [1] is on record as “No”.

For `Cc1cc(O)nc2cc(N)ccc12` [Carbostyril 124], the Color entry in data set [2] is on record as “Clear”. Also, in data set [1], the “Solubility @ 0.01 %” value was “Yes” and the “Solubility @ 0.1%” value is given as “No”.

For the compound `CCOc1ccc2c(ccc(/C=C/c3cccc([N+](=O)[O-])c3)[n+]2C)c1.COS(=O)(=O)[O-]` [Pinacryptol Yellow], the Color result in data set [2] is listed as “Yellow”. The “Solubility @ 0.1%” value in data set [1] is given as “No”.

Take `CCN1/C(=C/C=C2\CCC(/C=C/c3sc4ccc(Cl)cc4[n+]3CC)=C2N(c2ccccc2)c2ccccc2)Sc2ccc(Cl)cc21.[O-][Cl+3]([O-])([O-])[O-]` [IR140]: the Color entry in data set [2] was “Pale Blue”. Besides, in data set [1], the “Solubility @ 0.01 %” value is listed as “No” and the “Solubility @ 0.1%” value is given as “No”.

Take `CCN(CC)c1ccc2cc(-c3nc4ccccc4[nH]3)c(=O)oc2c1` [Coumarin 7]: the Color entry in data set [2] is recorded as “Yellow”. Further, in data set [1], the “Solubility @ 0.01 %” value is listed as “No” and the “Solubility @ 0.1%” value was “No”.

Regarding `CN(C)c1ccc2c(C(F)(F)F)cc(=O)oc2c1` [Coumarin 152], in data set [1], the “Solubility @ 0.01 %” value is “No” and the “Solubility @ 0.1%” value is “No”.
